{"source": "the NIST ThermoML archive (doi:10.1021/je200628n)", "assay": "activity coefficient (dimensionless); of the first substance listed, at infinite dilution; xn = mol fraction of the nth substance listed", "conditions": "101 kPa, Liquid, Chromatography, x1 = 0", "note": "± gives the expanded uncertainty stated by the source."}
{"smiles": "CCCCOC(C)=O", "note": "[butyl ethanoate] + NCCCCCCCCN", "values": [{"measurement": "activity coefficient", "setting": "328.15 K", "value": "1.51 ± 0.073"}, {"measurement": "activity coefficient", "setting": "338.15 K", "value": "1.25 ± 0.058"}, {"measurement": "activity coefficient", "setting": "343.15 K", "value": "1.14 ± 0.052"}, {"measurement": "activity coefficient", "setting": "348.15 K", "value": "1.05 ± 0.047"}]}
{"smiles": "CCOC(C)=O", "note": "[ethyl acetate] + NCCCCCCCCCCCCN", "values": [{"measurement": "activity coefficient", "setting": "348.25 K", "value": "1.36 ± 0.064"}, {"measurement": "activity coefficient", "setting": "353.15 K", "value": "1.29 ± 0.06"}, {"measurement": "activity coefficient", "setting": "358.25 K", "value": "1.22 ± 0.056"}, {"measurement": "activity coefficient", "setting": "363.21 K", "value": "1.15 ± 0.052"}]}
{"smiles": "CCCCCCCC", "note": "[octane] + NCCCCCCCCCCCCN", "values": [{"measurement": "activity coefficient", "setting": "348.25 K", "value": "5.54 ± 0.28"}, {"measurement": "activity coefficient", "setting": "353.15 K", "value": "5.43 ± 0.28"}, {"measurement": "activity coefficient", "setting": "358.25 K", "value": "5.27 ± 0.27"}, {"measurement": "activity coefficient", "setting": "363.21 K", "value": "5.19 ± 0.27"}]}
{"smiles": "CCCOC(C)=O", "note": "[propyl ethanoate] + NCCCCCCCCN", "values": [{"measurement": "activity coefficient", "setting": "328.15 K", "value": "1.29 ± 0.06"}, {"measurement": "activity coefficient", "setting": "338.15 K", "value": "1.08 ± 0.048"}, {"measurement": "activity coefficient", "setting": "343.15 K", "value": "0.997 ± 0.044"}, {"measurement": "activity coefficient", "setting": "348.15 K", "value": "0.929 ± 0.042"}]}
{"smiles": "CCCCCl", "note": "[1-chlorobutane] + NCCCCCCCCCCN", "values": [{"measurement": "activity coefficient", "setting": "338.2 K", "value": "2.38 ± 0.12"}, {"measurement": "activity coefficient", "setting": "348.15 K", "value": "2.12 ± 0.11"}, {"measurement": "activity coefficient", "setting": "353.22 K", "value": "2.01 ± 0.1"}]}
{"smiles": "Cc1ccccc1", "note": "[toluene] + NCCCCCCCCCCN", "values": [{"measurement": "activity coefficient", "setting": "338.2 K", "value": "2.52 ± 0.13"}, {"measurement": "activity coefficient", "setting": "348.15 K", "value": "2.23 ± 0.12"}, {"measurement": "activity coefficient", "setting": "353.22 K", "value": "2.13 ± 0.11"}]}
{"smiles": "CCO", "note": "[ethanol] + NCCCCCCCCN", "values": [{"measurement": "activity coefficient", "setting": "328.15 K", "value": "0.384 ± 0.029"}, {"measurement": "activity coefficient", "setting": "338.15 K", "value": "0.407 ± 0.029"}, {"measurement": "activity coefficient", "setting": "343.15 K", "value": "0.42 ± 0.029"}, {"measurement": "activity coefficient", "setting": "348.15 K", "value": "0.435 ± 0.029"}]}
{"smiles": "C=CCCC", "note": "[1-pentene] + NCCCCCCCCN", "values": [{"measurement": "activity coefficient", "setting": "328.15 K", "value": "2.81 ± 0.14"}, {"measurement": "activity coefficient", "setting": "338.15 K", "value": "2.7 ± 0.14"}, {"measurement": "activity coefficient", "setting": "343.15 K", "value": "2.67 ± 0.14"}, {"measurement": "activity coefficient", "setting": "348.15 K", "value": "2.65 ± 0.14"}]}
{"smiles": "CCc1ccccc1", "note": "[ethylbenzene] + NCCCCCCCCCCCCN", "values": [{"measurement": "activity coefficient", "setting": "348.25 K", "value": "2.5 ± 0.13"}, {"measurement": "activity coefficient", "setting": "353.15 K", "value": "2.47 ± 0.13"}, {"measurement": "activity coefficient", "setting": "358.25 K", "value": "2.42 ± 0.12"}, {"measurement": "activity coefficient", "setting": "363.21 K", "value": "2.39 ± 0.12"}]}
{"smiles": "C=CCCCC", "note": "[hex-1-ene] + NCCCCCCCCCCCCN", "values": [{"measurement": "activity coefficient", "setting": "348.25 K", "value": "4.28 ± 0.22"}, {"measurement": "activity coefficient", "setting": "353.15 K", "value": "4.12 ± 0.21"}, {"measurement": "activity coefficient", "setting": "358.25 K", "value": "3.93 ± 0.2"}, {"measurement": "activity coefficient", "setting": "363.21 K", "value": "3.8 ± 0.2"}]}
{"smiles": "CCCCOC(C)=O", "note": "[butyl ethanoate] + NCCCCCCCCCCCCN", "values": [{"measurement": "activity coefficient", "setting": "348.25 K", "value": "1.69 ± 0.084"}, {"measurement": "activity coefficient", "setting": "353.15 K", "value": "1.57 ± 0.077"}, {"measurement": "activity coefficient", "setting": "358.25 K", "value": "1.46 ± 0.07"}, {"measurement": "activity coefficient", "setting": "363.21 K", "value": "1.36 ± 0.065"}]}
{"smiles": "ClCCl", "note": "[dichloromethane] + NCCCCCCCCCCCCN", "values": [{"measurement": "activity coefficient", "setting": "348.25 K", "value": "1.33 ± 0.062"}, {"measurement": "activity coefficient", "setting": "353.15 K", "value": "1.23 ± 0.057"}, {"measurement": "activity coefficient", "setting": "358.25 K", "value": "1.12 ± 0.05"}, {"measurement": "activity coefficient", "setting": "363.21 K", "value": "1.05 ± 0.046"}]}
{"smiles": "CCCCCCCC", "note": "[octane] + NCCCCCCCCN", "values": [{"measurement": "activity coefficient", "setting": "328.15 K", "value": "4.73 ± 0.24"}, {"measurement": "activity coefficient", "setting": "338.15 K", "value": "4.4 ± 0.23"}, {"measurement": "activity coefficient", "setting": "343.15 K", "value": "4.24 ± 0.22"}, {"measurement": "activity coefficient", "setting": "348.15 K", "value": "4.13 ± 0.21"}]}
{"smiles": "CCOCC", "note": "[diethyl ether] + NCCCCCCCCCCN", "values": [{"measurement": "activity coefficient", "setting": "338.2 K", "value": "3.84 ± 0.2"}, {"measurement": "activity coefficient", "setting": "348.15 K", "value": "3.69 ± 0.19"}, {"measurement": "activity coefficient", "setting": "353.22 K", "value": "3.64 ± 0.19"}]}
{"smiles": "c1ccccc1", "note": "[benzene] + NCCCCCCCCCCN", "values": [{"measurement": "activity coefficient", "setting": "338.2 K", "value": "1.72 ± 0.086"}, {"measurement": "activity coefficient", "setting": "348.15 K", "value": "1.61 ± 0.079"}, {"measurement": "activity coefficient", "setting": "353.22 K", "value": "1.58 ± 0.077"}]}
{"smiles": "C=CCCCCCC", "note": "[oct-1-ene] + NCCCCCCCCN", "values": [{"measurement": "activity coefficient", "setting": "328.15 K", "value": "3.94 ± 0.2"}, {"measurement": "activity coefficient", "setting": "338.15 K", "value": "3.38 ± 0.17"}, {"measurement": "activity coefficient", "setting": "343.15 K", "value": "3.16 ± 0.16"}, {"measurement": "activity coefficient", "setting": "348.15 K", "value": "3 ± 0.15"}]}
{"smiles": "ClC(Cl)(Cl)Cl", "note": "[tetrachloromethane] + NCCCCCCCCCCCCN", "values": [{"measurement": "activity coefficient", "setting": "348.25 K", "value": "2.37 ± 0.12"}, {"measurement": "activity coefficient", "setting": "353.15 K", "value": "2.28 ± 0.12"}, {"measurement": "activity coefficient", "setting": "358.25 K", "value": "2.06 ± 0.11"}, {"measurement": "activity coefficient", "setting": "363.21 K", "value": "1.98 ± 0.1"}]}
{"smiles": "CCCCO", "note": "[butan-1-ol] + NCCCCCCCCN", "values": [{"measurement": "activity coefficient", "setting": "328.15 K", "value": "0.669 ± 0.034"}, {"measurement": "activity coefficient", "setting": "338.15 K", "value": "0.675 ± 0.034"}, {"measurement": "activity coefficient", "setting": "343.15 K", "value": "0.681 ± 0.034"}, {"measurement": "activity coefficient", "setting": "348.15 K", "value": "0.692 ± 0.035"}]}
{"smiles": "C=CCCC", "note": "[1-pentene] + NCCCCCCCCCCCCN", "values": [{"measurement": "activity coefficient", "setting": "348.25 K", "value": "4.21 ± 0.22"}, {"measurement": "activity coefficient", "setting": "353.15 K", "value": "4.04 ± 0.21"}, {"measurement": "activity coefficient", "setting": "358.25 K", "value": "3.89 ± 0.2"}, {"measurement": "activity coefficient", "setting": "363.21 K", "value": "3.75 ± 0.19"}]}
{"smiles": "ClCCl", "note": "[dichloromethane] + NCCCCCCCCCCN", "values": [{"measurement": "activity coefficient", "setting": "338.2 K", "value": "1.19 ± 0.054"}, {"measurement": "activity coefficient", "setting": "348.15 K", "value": "1.09 ± 0.049"}, {"measurement": "activity coefficient", "setting": "353.22 K", "value": "0.985 ± 0.043"}]}
{"smiles": "CCCCCl", "note": "[1-chlorobutane] + NCCCCCCCCN", "values": [{"measurement": "activity coefficient", "setting": "328.15 K", "value": "1.88 ± 0.095"}, {"measurement": "activity coefficient", "setting": "338.15 K", "value": "1.65 ± 0.081"}, {"measurement": "activity coefficient", "setting": "343.15 K", "value": "1.55 ± 0.075"}, {"measurement": "activity coefficient", "setting": "348.15 K", "value": "1.48 ± 0.071"}]}
{"smiles": "CCCCCCCl", "note": "[1-chlorohexane] + NCCCCCCCCCCN", "values": [{"measurement": "activity coefficient", "setting": "338.2 K", "value": "3.46 ± 0.18"}, {"measurement": "activity coefficient", "setting": "348.15 K", "value": "2.81 ± 0.14"}, {"measurement": "activity coefficient", "setting": "353.22 K", "value": "2.54 ± 0.13"}]}
